Reference: US7611863B2, “Selective staining of biomembranes using voltage-sensitive dyes” (Max-Planck-Gesellschaft zur Foerderung der Wissenschaften …, priority 2004, dated 2009)
Blank lines part the entries; values can stand above or below the compound they belong to.

Key:
[1] = Dye-lipid binding by fluorescence lipid titration; format: physicochemical; conditions: for average binding constant K to lipid membrane: POPC vesicles, Tris-NaCl buffer pH 8.1, 25° C., dye 0.5 μM; for binding constant to lipid membranes: fluorescence lipid titration, Example 2
Protocol: Dye-lipid binding. The binding of the dyes to lipid membranes was determined by fluorescence lipid titration^21 with large unilamellar vesicles (LUVs) made of 1-palmitoyl-2-oleoyl-phosphatidylcholine (POPC). The purity of the lipids was checked by 2-dimensional TLC^22. The vesicles were made by extrusion^23 in Tris-NaCl buffer (20 mM Tris, 100 mM NaCl, pH 8.1), using an extrusion apparatus and polycarbonate filters with 100 nm pore size (both Avestin Europe, Mannheim, Germany). Vesicle size was determined by quasielastic light scattering using an argon ion laser (Spectra-Physics, Darmstadt, Germany), a photomultiplier (Brookhaven Instruments, Vienna, Austria) and a correlator (ALV-5000, Langen, Germany). The lipid concentration was determined by a chromogenic enzyme assay (Biomerieux, Marcy I'Etoile, France). The standard deviation of three concentration measurements for every vesicle preparation was always below 4%. Vesicles were stored under argon at 4° C. in 15 ml Falcon Centrifuge Tubes (BD Labware Europe, Le Pont de Claix, France) and used within three days.
To measure dye binding constants, we prepared 1 mM solutions of the dyes 1-3 by ultrasonication in Ethanol (1) or Tris-NaCl buffer (2,3). […] In the same buffer, suspensions of POPC vesicles with concentrations ranging from 100 nM to 10 mM were prepared by dilution of stock solutions. Dye and lipid were pre-thermostatted to 25° C. […] The fluorescence emission recorded at 600 nm with excitation at 488 nm was used for the evaluation of the partition coefficients.
Dye binding to lipid. When styryl hemicyanines bind to lipid bilayers, their quantum yield of fluorescence is enhanced. […] We take advantage of that effect to examine the binding of Di-4-ASPP phosphate and Di-4-ASPP alcohol to lipid membranes by fluorescence titration^21. For comparison Di-4-ASPBS was also included in the investigation.
Dispersions of large lipid vesicles (Ø≈100 nm) were made from palmitoyl-oleoyl-phosphatidylcholine (POPC) with lipid concentrations ranging over five orders of magnitude. […] The fluorescence intensity was enhanced with increasing concentration of lipid for all three dyes. The enhancement was shifted to higher lipid concentrations in the order Di-4-ASPP alcohol, Di-4-ASPBS and Di-4-ASPP phosphate.
Binding. The dyes Di-10-phosphato-ASPBS (Di-10P-ASPBS) and Di-12-phosphato-ASPBS (Di-12P-ASPBS) as well as the corresponding products after enzymatic hydrolysis Di-10-hydroxy-ASPBS (Di-10A-ASPBS) and Di-12-hydroxy-ASPBS (Di-12A-ASPBS) were synthesized by organic chemical methods. Their binding to lipid membranes was tested by fluorescence lipid titration (cf. page 15, section dye binding to lipid). The binding constants amounted to 27 M^−1 (Di-10P-ASPBS), 250,000 M^−1 (Di-10A-ASPBS), 2100 M^−1 (Di-12P-ASPBS) and 3,000,000 M^−1 (Di-12P-ASPBS) (FIGS. 14 and 15 (center and right hand side)). The difference in binding constants between dye alcohol and dye phosphates (or dye precursors) therefore amounted to a factor of 10,000 for the pair Di-10P-ASPBS/Di-10A-ASPBS and to a factor of 1000 for the pair Di-12P-ASPBS/Di-12A-ASPBS. The binding curve for the more lipophilic pair Di-12P-ASPBS/Di-12A-ASPBS is shifted to […] lipid concentrations.

[2] = upon transfer from water to lecithin membranes; cited from earlier work
HEK 293 cells = test: Staining of HEK 293 cells by activation of binding through soluble phosphatase; format: cell-based
Protocol: FIG. 12A to F: Staining of HEK 293 cells with a voltage sensitive dye by activation of binding through soluble phosphatase added to the incubation medium. HEK 293 cells (A, brightfield image) were incubated with the voltage sensitive fluorescent dye Di-8-phosphato-ASPBS (cf. FIG. 11, bottom) at a concentration of 19.6 μM. […] The images shown are optimized for contrast and intensity.

[3] = tested on: HEK 293 cells expressing fusion protein of plasma membrane anchor and PLAP; test: Staining of HEK 293 cells through overexpressed membrane-bound phosphatase; format: cell-based
From the text: FIG. 13A to C: Staining of transfected HEK 293 cells with a voltage sensitive dye by activation of binding through an overexpressed, membrane-bound phosphatase. HEK 293 cells were cotransfected with a vector coding for GFP and a vector coding for a fusion protein of a plasma membrane anchor and phosphatase from the human placenta. A. fluorescence image showing the GFP fluoresence of a transfected cell (excitation filter 450/50 nm, emission filter 510 nm longpass; dichroic mirror: 505 nm). B. The voltage sensitive fluorescent dye Di-8-phosphato-ASPBS (cf. FIG. 11, bottom) was added to the incubation medium. […] C. […] The images shown are optimized for contrast and intensity.
(§1) FIG. 16. Genetically Targeted Staining of HEK293 cells with 1 mM Di-10P-ASPBS. A mixture of stable clones either expressing the membrane-bound phosphatase construct or cytosolic GFP were cultured on the same dish. (A) From left to right: (i) Brightfield image of cells. (ii) Fluorescence image of cells showing cells expressing cytosolic GFP (excitation filter 450/50 nm, emission filter 510 nm, dichroic mirror 505 nm). (iii) Cells expressing phosphatase as obtained by subtraction of GFP expressing cells from image i. (iv) Fluorescence image of cells with filters exc. 535/50 nm, em. 610/75 nm; dichroic mirror 535 nm. The image is normalized to the same level as in row B. (v) autoleveled image iv, showing fluorescence crosstalk of GFP. (B) Enzyme induced staining of cells as measured with filter set exc. 535/50 nm, em. 610/75 nm; dichroic mirror 535 nm. The membrane fluorescence increases over time. (C). Inverted and contrast-enhanced fluorescence images corresponding to row B. (D) Difference images. The image A/iv was subtracted from the images in row B. The resulting images were inverted and contrast was enhanced.
as §1, with “17.” for “16.”, “200 nM Di-12P-ASPBS.” for “1 mM Di-10P-ASPBS.”, “difference” for “and contrast-enhanced fluorescence images corresponding to row B. (D) Difference”, “enhanced. (D) Contrast enhanced images of row C.” for “enhanced.”
Enzyme induced staining. The dye precursors Di-10P-ASPBS and Di-12P-ASPBS were used to effect enzyme induced staining on cells. To test whether the staining is selective, a mixture of two cell populations was cultured in the same dish. One of these stably expressed the phosphatase construct, while the other was stably expressing GFP as a negative marker.

[4] = tested on: Madine Darby Canine Kidney (MDCK) cells; test: Enzyme induced staining of transiently transfected MDCK cells; format: cell-based
Protocol: FIG. 19. Genetically Targeted Staining of MDCK cells with Di-10P-ASPBS and Di-12P-ASPBS. (A) Cells were cotransfected with the membrane-bound phosphatase construct termed ArtPlasMA AP and H2B-GFP, a nucleus-localized transfection marker. Brightfield image and fluorescence images before (−1 sec) and after addition of 200 nM Di-10P-ASPBS. (B) Analogous to row A, but using 200 nM Di-12P-ASPBS. (C) Control experiment. Cells were transfected only with H2B-GFP and incubated with 200 nM Di-12P-ASPBS. Brightfield image and fluorescence images before (−1 sec) and after addition of dye (8 min). (D) Control experiment. Cells were cotransfected with the membrane-bound phosphatase construct termed ArtPlasMA AP and H2B-GFP and incubated with the dye Di-10A-ASPBS. Brightfield image and fluorescence image before (−1 sec) and after addition of dye (20 sec).
Two control experiments were performed: In the first control, cells were transfected only with the transfection marker H2B-GFP. […] In addition, no difference in staining intensity between transfected and untransfected cells can be discerned (FIG. 19C). In the second control experiment, cells were cotransfected with the phosphatase construct and the transfection marker.

[5] = cells cotransfected with ArtPlasMA AP and H2B-GFP, 200 nM

average binding constant K to lipid membrane [1]: 7500 ± 440 M⁻¹ | increment of the binding energy Δ(ΔG) relative to the alcohol ([1]; −RT ln(K/KA)): 0.526 kcal/mol
Compound: CCCCN(CCCC)c1ccc(C=Cc2cc[n+](CCCCS(=O)(=O)[O-])cc2)cc1 [Di-4-ASPBS, Di-4-ASP butylsulfonate, reference compound]
increase in fluorescence quantum yield [2]: 36 fold

average binding constant K to lipid membrane [1]: 17920 ± 360 M⁻¹
Compound: CCCCN(CCCC)c1ccc(/C=C/c2cc[n+](CCCO)cc2)cc1.[Br-] [Di-4-ASPP alcohol, 1-[γ-hydroxypropyl]-trans-4-[p-(di-n-butylamino)styryl]-pyridinium bromide]

Compound: Di-8-phosphato-ASPBS
permeation of the cell plasma membrane (HEK 293 cells; 19.6 μM, 30 minutes, cell interior stained only slightly): permeates the cell plasma membrane very slowly | membrane fluorescence before enzyme addition (HEK 293 cells; 19.6 μM, after 30 minutes, no enzyme): no membrane fluorescence could be detected | membrane fluorescence after addition of soluble PLAP (HEK 293 cells; PLAP 0.18 DEA Units/ml, 15 sec to 6 min): membrane fluorescence was activated and increased over time | membrane fluorescence directly after dye addition ([3]; transfected HEK 293 cell): no membrane fluorescence was visible | membrane staining after 5 min of incubation ([3]; transfected HEK 293 cell): the membrane of the transfected cell was clearly stained | membrane fluorescence of untransfected control cells ([3]; untransfected HEK 293 cells incubated with the dye): did not show any membrane fluorescence

binding constant to lipid membranes [1]: 250,000 M^−1
Compound: Di-10-hydroxy-ASPBS [Di-10A-ASPBS]
staining by product dye, transfected versus untransfected cells ([4]; cotransfected with phosphatase construct and H2B-GFP): equally and unselectively stained

binding constant to lipid membranes [1]: 27 M⁻¹ | difference in binding constants between dye alcohol and dye phosphate (precursor) ([1]; pair precursor/product dye): 10,000 factor
Compound: Di-10-phosphato-ASPBS [Di-10P-ASPBS]
enzyme induced membrane staining in mixed cell populations ([3]; phosphatase clones and GFP clones in same dish, 1 mM Di-10P-ASPBS, 200 nM Di-12P-ASPBS): allowed enzyme induced membrane staining | localization of staining at beginning of experiment [4, 5]: staining is localized to the transfected cells at the beginning of the experiment | localization of staining over several minutes [4, 5]: the produced dye diffuses to the surrounding, nontransfected cells
